Measurements from ChEMBL document CHEMBL1154825, “Schweinfurthins I and J from Macaranga schweinfurthii” (2010).

Tests used:
Type in all cases: functional
[1] = tested on: KM12; assay: Growth inhibition of human KM12 cells; settings: for TGI: read-out: pTGI (converted)
[2] = Growth inhibition of human NCI60 cells
[3] = tested on: HOP-62; assay: Growth inhibition of human HOP62 cells; settings: for TGI: read-out: pTGI (converted)
[4] = tested on: HCT-15; assay: Growth inhibition of human HCT15 cells; settings: for TGI: read-out: pTGI (converted)
[5] = tested on: SNB-75; assay: Growth inhibition of human SNB75 cells; settings: for TGI: read-out: pTGI (converted)
[6] = tested on: K562; assay: Growth inhibition of human K562 cells; settings: for TGI: read-out: pTGI (converted)
[7] = tested on: MDA-MB-468; assay: Growth inhibition of human MDA-MB-468 cells; settings: for CC50: read-out: pLC50 (the source's name) (converted); for TGI: read-out: pTGI (converted)
[8] = tested on: RXF 393; assay: Growth inhibition of human […] cells; settings: for CC50: read-out: pLC50 (the source's name) (converted); for TGI: read-out: pTGI (converted)
[9] = tested on: CCRF-CEM; assay: Growth inhibition of human CCRF-CEM cells; settings: for TGI: read-out: pTGI (converted)
[10] = tested on: MOLT-4; assay: Growth inhibition of human MOLT4 cells; settings: for TGI: read-out: pTGI (converted)
[11] = tested on: SW-620; assay: Growth inhibition of human SW620 cells; settings: for TGI: read-out: pTGI (converted)
[12] = tested on: SNB-19; assay: Growth inhibition of human SNB19 cells; settings: for TGI: read-out: pTGI (converted)
[13] = tested on: ACHN; assay: Growth inhibition of human ACHN cells; settings: for CC50: read-out: pLC50 (the source's name) (converted); for TGI: read-out: pTGI (converted)
[14] = tested on: 786-0; assay: Growth inhibition of human 786-0 cells; settings: for CC50: read-out: pLC50 (the source's name) (converted); for TGI: read-out: pTGI (converted)
[15] = tested on: U-251; assay: Growth inhibition of human U251 cells; settings: for TGI: read-out: pTGI (converted)
[16] = tested on: NCI/ADR-RES; assay: Growth inhibition of human NCI/ADR-RES cells; settings: for CC50: read-out: pLC50 (the source's name) (converted); for TGI: read-out: pTGI (converted)
[17] = tested on: A549; assay: Growth inhibition of human A549 cells; settings: for TGI: read-out: pTGI (converted)
[18] = tested on: SF-295; assay: Growth inhibition of human SF295 cells; settings: for TGI: read-out: pTGI (converted)

## CC(C)=CCC/C(C)=C/Cc1cc(/C=C/c2cc(O)cc(O)c2)ccc1O [SCHWEINFURTHIN I]
[1]
  GI50: 7.08 µM
  LC50: 49 µM
  TGI: 20.4 µM
[2]
  GI50: 10 µM
[3]
  GI50: 14.5 µM
  LC50: 53.7 µM
  TGI: 27.5 µM
[4]
  GI50: 15.8 µM
  LC50 (50% lethal concentration): > 100 µM
  TGI: 58.9 µM
[5]
  GI50: 11.2 µM
  LC50: 52.5 µM
  TGI: 24.5 µM
[6]
  GI50: 5.01 µM
  LC50: 72.4 µM
  TGI: 22.4 µM
[7]
  GI50: 9.12 µM
  CC50: 53.7 µM
  TGI: 22.9 µM
[8]
  GI50: 1.78 µM
  CC50: 7.76 µM
  TGI: 3.72 µM
[9]
  GI50: 5.37 µM
  LC50: 95.5 µM
  TGI: 25.7 µM
[10]
  GI50: 7.24 µM
  LC50: > 100 µM
  TGI: 30.2 µM
[11]
  GI50: 15.8 µM
  LC50: > 100 µM
  TGI: 43.7 µM
[12]
  GI50: 12.6 µM
  LC50: 56.2 µM
  TGI: 26.9 µM
[13]
  GI50: 10 µM
  CC50: 49 µM
  TGI: 22.4 µM
[14]
  GI50: 3.55 µM
  CC50: 37.2 µM
  TGI: 12 µM
[15]
  GI50: 5.5 µM
  LC50: 51.3 µM
  TGI: 20 µM
[16]
  GI50: 9.33 µM
  CC50: 58.9 µM
  TGI: 24 µM
[17]
  GI50: 10.5 µM
  LC50: 66.1 µM
  TGI: 26.3 µM
[18]
  GI50: 0.372 µM
  LC50: 51.3 µM
  TGI: 15.8 µM

## CC(C)=CCC/C(C)=C/CC/C(C)=C/Cc1c(O)cc(/C=C/c2ccc(O)cc2)cc1O [SCHWEINFURTHIN J]
[1]
  GI50: 2.75 µM
  LC50: 31.6 µM
  TGI: 8.91 µM
[2]
  GI50: 2.8 µM
[3]
  GI50: 2.04 µM
  LC50: 7.41 µM
  TGI: 3.89 µM
[4]
  GI50: 3.24 µM
  LC50 (50% lethal concentration): 64.6 µM
  TGI: 16.6 µM
[5]
  GI50: 8.91 µM
  LC50: 46.8 µM
  TGI: 21.4 µM
[6]
  GI50: 3.72 µM
  LC50: > 100 µM
  TGI: 22.9 µM
[7]
  GI50: 2.69 µM
  CC50: 36.3 µM
  TGI: 8.91 µM
[8]
  GI50: 1.86 µM
  CC50: 6.61 µM
  TGI: 3.55 µM
[9]
  GI50: 0.537 µM
  LC50: > 100 µM
  TGI: 17 µM
[10]
  GI50: 4.07 µM
  LC50: > 100 µM
  TGI: 25.1 µM
[11]
  GI50: 3.16 µM
  LC50: 66.1 µM
  TGI: 12 µM
[12]
  GI50: 6.76 µM
  LC50: 46.8 µM
  TGI: 19.5 µM
[13]
  GI50: 3.8 µM
  CC50: 38.9 µM
  TGI: 13.5 µM
[14]
  GI50: 1.95 µM
  CC50: 9.77 µM
  TGI: 4.37 µM
[15]
  GI50: 2.75 µM
  LC50: 30.9 µM
  TGI: 8.32 µM
[16]
  GI50: 3.16 µM
  CC50: 38.9 µM
  TGI: 9.77 µM
[17]
  GI50: 3.31 µM
  LC50: 42.7 µM
  TGI: 12.9 µM
[18]
  GI50: 2.29 µM
  LC50: 45.7 µM
  TGI: 11.5 µM
